Source: ChEMBL document CHEMBL1130441, “Studies on -lactam antibiotics. Synthesis and antibacterial activity of novel 1-methylcarbapenems related to FR21818: 5-membered ring analogs” (1997)
Converted amounts (≈) assume the structure as drawn.

Experiments:
Escherichia coli = assay: In vitro antibacterial activity of compound was measured on Escherichia coli NIHJ JC-2; assay type: functional
Proteus vulgaris = assay: In vitro antibacterial activity of compound was measured on Proteus vulgaris IAM 1025; assay type: functional
Pseudomonas aeruginosa [1] = assay: In vitro antibacterial activity of compound was measured on Pseudomonas aeruginosa IAM 1095; assay type: functional
Staphylococcus aureus [2] = assay: In vitro antibacterial activity of compound was measured on Staphylococcus aureus 209P JC-1; assay type: functional
Staphylococcus aureus [3] = assay: In vitro antibacterial activity of compound was measured on Staphylococcus aureus 3004(MRSA); assay type: functional
Pseudomonas aeruginosa [4] = assay: In vitro antibacterial activity of compound was measured on Pseudomonas aeruginosa 26; assay type: functional
[5] = biological target: Dipeptidase 1 (Homo sapiens) (UniProt P16444); assay: In vitro rate of hydrolysis by human dehydropeptidase-1 compared to meropenem.
Dipeptidase 1 (Homo sapiens), sequence (P16444 whole entry, looked up): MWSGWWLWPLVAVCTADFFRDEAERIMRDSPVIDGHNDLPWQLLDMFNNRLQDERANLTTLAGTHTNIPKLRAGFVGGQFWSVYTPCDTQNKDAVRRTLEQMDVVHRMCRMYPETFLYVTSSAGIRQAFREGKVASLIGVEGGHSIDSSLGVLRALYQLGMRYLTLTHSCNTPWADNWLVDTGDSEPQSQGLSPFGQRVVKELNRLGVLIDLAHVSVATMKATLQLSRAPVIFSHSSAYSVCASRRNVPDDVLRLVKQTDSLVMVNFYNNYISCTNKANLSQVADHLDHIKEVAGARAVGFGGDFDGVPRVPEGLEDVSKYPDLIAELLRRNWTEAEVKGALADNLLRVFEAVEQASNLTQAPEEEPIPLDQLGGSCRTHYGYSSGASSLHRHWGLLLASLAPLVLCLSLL

Mus musculus [6] = assay: Protective activity of compound was measured against lethal systemic infection by Staphylococcus aureus 8008 (MRSA) in ICR mice at 1 hr after subcutaneous administration; assay type: functional; settings: sc
Mus musculus [7] = assay: Protective activity of compound against lethal systemic infection by Staphylococcus aureus 8008 (MRSA) in ICR mice at 1 hr after subcutaneous administration; assay type: functional; settings: sc
Mus musculus [8] = assay: Protective activity of compound against lethal systemic infection by Staphylococcus aureus 8008 (MRSA) in ICR mice at 1 hr after sc administration; assay type: functional

| Compound | MIC (Escherichia coli) [µg/mL] | MIC (Proteus vulgaris) [µg/mL] | MIC (Pseudomonas aeruginosa [1]) [µg/mL] | MIC (Staphylococcus aureus [2]) [µg/mL] | MIC (Staphylococcus aureus [3]) [µg/mL] | MIC (Pseudomonas aeruginosa [4]) [µg/mL] | DHP-I stability [5] | ED50 (Mus musculus [6]) [mg/kg] | ED50 (Mus musculus [7]) [mg/kg] | ED50 (Mus musculus [8]) [mg/kg] |
| --- | --- | --- | --- | --- | --- | --- | --- | --- | --- | --- |
| C[C@@H](O)[C@H]1C(=O)N2C(C(=O)O)=C(S[C@@H]3CN[C@H](Cc4cc[n+](C)n4C)C3)[C@H](C)[C@H]12.[Cl-] | 0.2 | 0.78 | 1.56 | 0.05 | 6.25 | 0.2 | 0.42 |  |  |  |
| C[C@@H](O)[C@H]1C(=O)N2C(C(=O)O)=C(S[C@@H]3CN[C@H](Cc4c(CO)c[n+](C)n4C)C3)[C@H](C)[C@H]12.[Cl-] | 0.2 | 0.78 | 3.13 | 0.1 | 25 | 0.39 | 0.28 |  |  |  |
| C[C@@H](O)[C@H]1C(=O)N2C(C(=O)O)=C(S[C@@H]3CN[C@H](Cc4cc[n+](CCO)n4C)C3)[C@H](C)[C@H]12.[Cl-] | 0.2 | 1.56 | 6.25 | 0.05 | 6.25 | 0.2 | 0.26 | 5.45 |  |  |
| C[C@@H](O)[C@H]1C(=O)N2C(C(=O)O)=C(S[C@@H]3CN[C@H](Cc4cn(C)[n+](C)c4CO)C3)[C@H](C)[C@H]12.[Cl-] | 0.39 | 1.56 | 6.25 | 0.05 | 6.25 | 0.39 | 0.24 |  |  |  |
| C[C@@H](O)[C@H]1C(=O)N2C(C(=O)O)=C(SCCNC=N)C[C@H]12 [IMIPENEM ANHYDROUS] |  |  |  |  |  |  |  |  | 7.02 |  |
| C[C@@H](O)[C@H]1C(=O)N2C(C(=O)O)=C(S[C@@H]3CN[C@H](Cc4cc[n+](CC(N)=O)n4C)C3)[C@H](C)[C@H]12.[Cl-] | 0.1 | 0.39 | 3.13 | < 0.025 | 6.25 | 0.1 | 0.35 |  |  |  |
| CN[C@H](CC(C)C)C(=O)N[C@H]1C(=O)N[C@@H](CC(N)=O)C(=O)N[C@H]2C(=O)N[C@H]3C(=O)N[C@H](C(=O)N[C@H](C(=O)O)c4cc(O)cc(O)c4-c4cc3ccc4O)[C@H](O)c3ccc(c(Cl)c3)Oc3cc2cc(c3O[C@@H]2O[C@H](CO)[C@@H](O)[C@H](O)[C@H]2O[C@H]2C[C@](C)(N)[C@H](O)[C@H](C)O2)Oc2ccc(cc2Cl)[C@H]1O [VANCOMYCIN] |  |  |  |  |  |  |  | 2.73 |  |  |
| C[C@@H](O)[C@H]1C(=O)N2C(C(=O)O)=C(S[C@@H]3CN[C@H](Cc4cn(C)[n+](C)c4)C3)[C@H](C)[C@H]12.[Cl-] | 0.2 | 1.56 | 3.13 | 0.05 | 3.13 | 0.39 | 0.28 |  |  |  |
| C[C@@H](O)[C@H]1C(=O)N2C(C(=O)O)=C(S[C@@H]3CN[C@H](Cc4cn(C)[n+](CC(=O)O)c4)C3)[C@H](C)[C@H]12.[Cl-] | 0.1 | 0.78 | 6.25 | 0.1 | 12.5 | 0.39 | 0.14 |  |  |  |
| C[C@@H](O)[C@H]1C(=O)N2C(C(=O)O)=C(S[C@@H]3CN[C@H](C(=O)N(C)C)C3)[C@H](C)[C@H]12 [MEROPENEM] | 0.025 (≈ 0.0652 µM) | 0.1 (≈ 0.261 µM) | 1.56 (≈ 4.07 µM) | 0.1 (≈ 0.261 µM) | 25 (≈ 65.2 µM) | 0.2 (≈ 0.522 µM) | 1 |  |  | 7.88 |
| CC1(C)C[C@@H]1C(=O)N/C(=C\CCCCSC[C@H](N)C(=O)O)C(=O)O [CILASTATIN] |  |  |  |  |  |  |  |  |  | 7.88 |
| C[C@@H](O)[C@H]1C(=O)N2C(C(=O)[O-])=C(SC3Cn4cnc[n+]4C3)[C@H](C)[C@H]12 (stereo not given in full) [BIAPENEM] | 0.39 (≈ 1.11 µM) | 3.13 (≈ 8.93 µM) | 1.56 (≈ 4.45 µM) | 0.05 (≈ 0.143 µM) | 25 (≈ 71.3 µM) | 0.2 (≈ 0.571 µM) | 0.15 |  |  | 35.2 |
| C[C@@H](O)[C@H]1C(=O)N2C(C(=O)O)=C(S[C@@H]3CN[C@H](Cc4cc(CO)[n+](C)n4C)C3)[C@H](C)[C@H]12.[Cl-] | 0.1 |  | 6.25 |  |  |  |  |  |  |  |

Continued by falling MIC (Escherichia coli), values first:

| MIC (Escherichia coli) [µg/mL] | MIC (Proteus vulgaris) [µg/mL] | MIC (Pseudomonas aeruginosa [1]) [µg/mL] | MIC (Staphylococcus aureus [2]) [µg/mL] | MIC (Staphylococcus aureus [3]) [µg/mL] | MIC (Pseudomonas aeruginosa [4]) [µg/mL] | DHP-I stability [5] | Compound | ED50 (Mus musculus [6]) [mg/kg] | ED50 (Mus musculus [7]) [mg/kg] | ED50 (Mus musculus [8]) [mg/kg] |
| --- | --- | --- | --- | --- | --- | --- | --- | --- | --- | --- |
| 0.39 | 1.56 | 1.56 | 0.05 | 12.5 | 0.39 | 0.2 | C[C@@H](O)[C@H]1C(=O)N2C(C(=O)O)=C(S[C@@H]3CN[C@H](Cc4cn(C)[n+](CCO)c4)C3)[C@H](C)[C@H]12.[Cl-] |  |  |  |
| 0.2 | 0.78 | 3.13 | < 0.025 | 6.25 | 0.2 | 0.29 | C[C@@H](O)[C@H]1C(=O)N2C(C(=O)O)=C(S[C@@H]3CN[C@H](Cc4cn(C)[n+](CC(N)=O)c4)C3)[C@H](C)[C@H]12.[Cl-] |  |  |  |
| 0.2 | 0.78 | 1.56 | 0.05 | 6.25 | 0.2 | 0.27 | C[C@@H](O)[C@H]1C(=O)N2C(C(=O)O)=C(S[C@@H]3CN[C@H](Cc4c[n+](C)c(CO)n4C)C3)[C@H](C)[C@H]12.[Cl-] |  |  |  |
| 0.2 | 0.78 | 3.13 | 0.05 | 6.25 | 0.2 | 0.41 | C[C@@H](O)[C@H]1C(=O)N2C(C(=O)O)=C(S[C@@H]3CN[C@H](Cc4c[n+](C)cn4C)C3)[C@H](C)[C@H]12.[Cl-] |  |  |  |
| 0.2 | 0.78 | 12.5 | 0.1 | 12.5 | 1.56 | 0.22 | C[C@@H](O)[C@H]1C(=O)N2C(C(=O)O)=C(S[C@@H]3CN[C@H](Cc4n(C)nc[n+]4C)C3)[C@H](C)[C@H]12.[Cl-] |  |  |  |
| 0.1 | 0.78 | 3.13 | 0.05 | 12.5 | 0.2 | 0.31 | C[C@@H](O)[C@H]1C(=O)N2C(C(=O)O)=C(S[C@@H]3CN[C@H](Cc4c[n+](CC(N)=O)cn4C)C3)[C@H](C)[C@H]12.[Cl-] |  |  |  |
| 0.1 | 0.78 | 12.5 | 0.1 | 6.25 | 0.39 | 0.3 | C[C@@H](O)[C@H]1C(=O)N2C(C(=O)O)=C(S[C@@H]3CN[C@H](Cc4n(C)cc[n+]4C)C3)[C@H](C)[C@H]12.[Cl-] |  |  |  |
| 0.1 |  | 1.56 |  |  |  | 0.3 | C[C@@H](O)[C@H]1C(=O)N2C(C(=O)O)=C(S[C@@H]3CN[C@H](Cc4c[n+](C)c(C(N)=O)n4C)C3)[C@H](C)[C@H]12.[Cl-] |  |  |  |
| 0.1 | 0.78 | 3.13 | 0.1 | 25 | 0.39 | 0.17 | C[C@@H](O)[C@H]1C(=O)N2C(C(=O)O)=C(S[C@@H]3CN[C@H](Cc4c[n+](CCO)nn4C)C3)[C@H](C)[C@H]12.[Cl-] |  |  |  |
| 0.1 |  | 3.13 |  |  |  | 0.21 | C[C@@H](O)[C@H]1C(=O)N2C(C(=O)O)=C(S[C@@H]3CN[C@H](Cc4cn5[n+](c4)CCC5)C3)[C@H](C)[C@H]12.[Cl-] |  |  |  |
| 0.1 | 0.78 | 3.13 | 0.05 | 25 | 0.39 | 0.32 | C[C@@H](O)[C@H]1C(=O)N2C(C(=O)O)=C(S[C@@H]3CN[C@H](Cc4c[n+](C)nn4C)C3)[C@H](C)[C@H]12.[Cl-] |  |  |  |
| 0.1 | 1.56 | 3.13 | 0.05 | 12.5 | 0.39 | 0.25 | C[C@@H](O)[C@H]1C(=O)N2C(C(=O)O)=C(S[C@@H]3CN[C@H](Cc4c[n+](CCO)cn4C)C3)[C@H](C)[C@H]12.[Cl-] |  |  |  |
| 0.05 |  | 3.13 |  |  |  | 0.61 | C[C@@H](O)[C@H]1C(=O)N2C(C(=O)O)=C(S[C@@H]3CN[C@H](Cc4cc[n+](CC(=O)O)n4C)C3)[C@H](C)[C@H]12.[Cl-] |  |  |  |
